The values that follow come from US20220145092A1, “BIT COMPOSITIONS WITH SIGNIFICANTLY IMPROVED ACTIVITY” (Troy Technology II, Inc., priority 2020, published 2022).

The test system of the experiment is Pseudomonas aeruginosa (ATCC 10145). Put plainly: MIC by microbroth dilution and synergy index, Pseudomonas aeruginosa. The note with it: product level. Type of experiment: cell-based. Here is the method:
MICs were determined via microbroth dilution using the following specific test parameters:
Necessary organism dilutions via OD600 were calculated based on OD600 of 1.0 being equivalent to 8*10^8 CFU/mL. Biocide dilutions were performed in 2-fold increments for each assay.
Synergy index (SI) scores were calculated according to the mass action equation below:
S.I.=[MIC[A] in-blend/MIC[A] alone]+[MIC[B] in-blend/MIC[B] alone]
Combinations of ingredients were determined to be synergistic (S.I.≤0.5), additive (S.I.>0.5 to 1), indifferent (S.I.>1 to <2) or antagonistic (S.I.≥2), as defined by EUCAST guidelines^1. 1 European Committee for Antimicrobial Susceptibility Testing (EUCAST) of the European Society of Clinical Microbiology and Infectious Diseases (ESCMID). EUCAST Definitive Document E.Def 1.2, May 2000: Terminology relating to methods for the determination of susceptibility of bacteria to antimicrobial agents. Clin. Microbiol. Infect. Off. Publ. Eur. Soc. Clin. Microbiol. Infect. Dis. 6, 503-508 (2000).
MIC values for Mergal BIT20X (20% BIT), individual amines, and 1:1 mixtures of amines and Mergal BIT20X were determined against the test organism Pseudomonas aeruginosa (ATCC 10145) using 96-well microbroth dilution methodology.
Synergy of Jeffamine T403 and Mergal BIT20X mixtures from 1:50 to 50:1 were tested against P. aeruginosa. Jeffamine T403 was diluted to 20% w/w before mixing with Mergal BIT20X at the indicated ratios. The results are plotted in FIG. 1. Jeffamine T403 and Mergal BIT20X are synergistic at ratios with excess T403. In FIG. 1, the x-axis indicates the fractional BIT level in the blend (1=100% BIT, 0=100% T403, 0.5=50% BIT, 50% T403, etc.), the left y-axis is the MIC against Pseudomonas aeruginosa (ATCC 10145), and the right y-axis is the calculated Synergy Index (SI). The dotted line indicates the synergy index cutoff as defined by EUCAST guidelines (SI<0.5). The MIC raw data is presented in Table 3; MIC values are reported on active concentration.
On the technique in general: In broth dilution the organism is exposed to a series of concentrations in liquid medium.

Take `CC(CN)CCCN` (stereo not drawn) [Dytek A]: the “MIC, Amine Only, Avg.” value is 2500 ppm; the “MIC, Amine Only, Rep. 1” value is reported as 2500 ppm; the “MIC, Amine Only, Rep.2” value came out at 2500 ppm.

As for `NCCNCCNCCN` [TETA], the “MIC, Amine Only, Avg.” value is given as 938 ppm; the “MIC, Amine Only, Rep. 1” value was found to be 625 ppm; the “MIC, Amine Only, Rep.2” value stood at 1250 ppm.
